Laboratory results reported in US20150141381A1, “TETRACYCLINE COMPOUNDS HAVING TARGET THERAPEUTIC ACTIVITIES” (Paratek Pharmaceuticals, Inc., priority 2001, published 2015).
Like-named read-outs stand apart in the source and are kept apart here.

Columns and labels:
S. aureus RN450 = experiment: In Vitro Anti-Bacterial Activity Assay (MIC), gram positive; format: cell-based; conditions: Staphylococcus aureus, RN450, 18 h
E. coli mL308 225 = experiment: In Vitro Anti-Bacterial Activity Assay (MIC), gram negative; format: cell-based; conditions: Escherichia coli, ML308225, 18 h
[1] = gram positive bacteria, read-out: Antibiotic Activity Gram + (MIC)
[2] = gram negative bacteria, read-out: Antibiotic Activity Gram − (MIC)
[3] = MIC class, Table 3, read-out: Antibiotic Activity Gram +
[4] = MIC class, Table 3, read-out: Antibiotic Activity Gram −
[5] = MIC class, Table 3 (Continued), read-out: Gram+ activity
[6] = MIC class, Table 3 (Continued), read-out: Gram− activity

Compound	MIC (S. aureus RN450; [1]) [µg/mL]	MIC (E. coli mL308 225; [2]) [µg/mL]	MIC (S. aureus RN450; [3]) [µg/mL]	MIC (E. coli mL308 225; [4]) [µg/mL]	other results
CN1CCC(Nc2ccc(O)c3c2C[C@H]2C[C@H]4[C@H](N(C)C)C(O)=C(C(N)=O)C(=O)[C@@]4(O)C(O)=C2C3=O)CC1	< 4	> 4			
CN(C)c1cc(NC(=O)Nc2cccc3ccccc23)c(O)c2c1C[C@H]1C[C@H]3[C@H](N(C)C)C(O)=C(C(N)=O)C(=O)[C@@]3(O)C(O)=C1C2=O [S]			< 4	> 4	
CCCCN(CCCC)Cc1cc(N(C)C)c2c(c1O)C(=O)C1=C(O)[C@]3(O)C(=O)C(C(N)=O)=C(O)C(N(C)C)[C@@H]3C[C@@H]1C2 (some centres unmarked) [EZ]			< 4	> 4	
CCN(CC)c1cc(CN2CCC(F)CC2)c(O)c2c1C[C@H]1C[C@H]3[C@H](N(C)C)C(O)=C(C(N)=O)C(=O)[C@@]3(O)C(O)=C1C2=O	< 4	< 4			
CN(C)[C@@H]1C(O)=C(C(N)=O)C(=O)[C@@]2(O)C(O)=C3C(=O)c4c(O)ccc(-c5cnccn5)c4C[C@H]3C[C@@H]12	< 4	< 4			
Cc1ccc(CCc2ccc(O)c3c2C[C@H]2C[C@H]4[C@H](N(C)C)C(O)=C(C(N)=O)C(=O)[C@@]4(O)C(O)=C2C3=O)cc1					MIC (S. aureus RN450; [5]): < 4 µg/mL; MIC (E. coli mL308 225; [6]): < 4 µg/mL
CN(C)c1cc(CNCCC(F)(F)F)c(O)c2c1C[C@H]1C[C@H]3[C@H](N(C)C)C(O)=C(C(N)=O)C(=O)[C@@]3(O)C(O)=C1C2=O [drawing 3671]	< 4	< 4			
COc1ccc(CN2CCOCC2)cc1-c1ccc(O)c2c1C[C@H]1C[C@H]3[C@H](N(C)C)C(O)=C(C(N)=O)C(=O)[C@@]3(O)C(O)=C1C2=O [BV]			< 4	> 4	
CN(C)[C@@H]1C(O)=C(C(N)=O)C(=O)[C@@]2(O)C(O)=C3C(=O)c4c(O)ccc(C=CC#N)c4C[C@H]3C[C@@H]12 [NO]			< 4	< 4	
CN(C)[C@H]1C(O)=C(C(N)=O)C(=O)[C@@]2(O)C(O)=C3C(=O)c4c(O)ccc(-c5ccc(CN6CCCC6)o5)c4C[C@H]3C[C@@H]12 [LM]			< 4	< 4	
CCOC(=O)C(Cc1ccccc1)NCc1ccc(OC)c(-c2ccc(O)c3c2C[C@H]2C[C@H]4[C@H](N(C)C)C(O)=C(C(N)=O)C(=O)[C@@]4(O)C(O)=C2C3=O)c1 (some centres unmarked) [FZ]			< 4	> 4	
C[C@H]1c2ccc(-c3cccc(CN4CCN(C)CC4)c3)c(O)c2C(=O)C2=C(O)[C@]3(O)C(=O)C(C(N)=O)=C(O)[C@@H](N(C)C)[C@@H]3[C@@H](O)[C@@H]21 [JA]			> 4	> 4	
CCCN1CCC(Nc2ccc3c(c2O)C(=O)C2=C(O)[C@]4(O)C(=O)C(C(N)=O)=C(O)[C@@H](N(C)C)[C@@H]4[C@@H](O)[C@@H]2[C@H]3C)CC1 [KX]			< 4	< 4	
CN(C)c1cc(NC2CCN(Cc3ccccc3)CC2)c(O)c2c1C[C@H]1C[C@H]3[C@H](N(C)C)C(O)=C(C(N)=O)C(=O)[C@@]3(O)C(O)=C1C2=O [KM]			> 4	> 4	
CC#Cc1cc(N(C)C)c2c(c1O)C(=O)C1=C(O)[C@]3(O)C(=O)C(C(N)=O)=C(O)[C@@H](N(C)C)[C@@H]3C[C@@H]1C2					MIC (S. aureus RN450; [5]): > 4 µg/mL; MIC (E. coli mL308 225; [6]): > 4 µg/mL
CN(C)[C@@H]1C(O)=C(C(N)=O)C(=O)[C@@]2(O)C(O)=C3C(=O)c4c(O)ccc(N5CCOCC5)c4C[C@H]3C[C@@H]12 [drawing 3548]	< 4	< 4			
CN(C)c1cc(CNCc2ccc(C#N)cc2)c(O)c2c1C[C@H]1C[C@H]3[C@H](N(C)C)C(O)=C(C(N)=O)C(=O)[C@@]3(O)C(O)=C1C2=O	< 4	> 4			
COC(=O)C1CCN(CC(=O)Nc2ccc(-c3ccc(O)c4c3C[C@H]3C[C@H]5[C@H](N(C)C)C(O)=C(C(N)=O)C(=O)[C@@]5(O)C(O)=C3C4=O)cc2)CC1	< 4	> 4			
CN(C)[C@@H]1C(O)=C(C(N)=O)C(=O)[C@@]2(O)C(O)=C3C(=O)c4c(O)ccc(-c5ccccc5Cl)c4C[C@H]3C[C@@H]12					MIC (S. aureus RN450; [5]): < 4 µg/mL; MIC (E. coli mL308 225; [6]): < 4 µg/mL
